The results in this text go back to US20260285918A1, “PEPTIDE FOR INHIBITING PROTEIN AGGREGATION AND PROTECTING PROTEIN ACTIVITY” (GWANGJU INSTITUTE OF SCIENCE AND TECHNOLOGY, priority 2023, published 2026).

Data set [1] relates to LDH (Lactate dehydrogenase). The data set can be described thus: LDH activity protection after dehydration-rehydration and freeze-thaw. The format is biochemical. Conditions: for LDH activity protection rate: motif added at up to 1/10 of the BSA amount. An excerpt: Specifically, as illustrated in FIG. 6(c), considering the charge, hydrophobicity, and hydrophilicity of each amino acid in the CAHS motif 1 124-142 sequence, Y (Tyr), Q (Gln), E (Glu), V (Val), R (Arg), and L (Leu) in the amino acid sequence of CAHS motif 1, represented by SEQ ID NO: 2, were each mutated to alanine at one site.

Data set [2] has as its system LDH (Lactate dehydrogenase). The data set can be described thus: Inhibition of LDH aggregation (absorption at 340 nm, light scattering) after dehydration-rehydration and freeze-thaw. From the text:
In other words, protein aggregation is the main cause of loss of protein activity. Protein aggregation is induced during the process of freezing and thawing (freeze and thaw) or in a water-free environment (dehydration), which causes loss of protein activity.

Data set [3] deals with LDH (Lactate dehydrogenase). Description: LDH activity protection with temperature and time (storage). The data set is classed as biochemical. As to conditions: mass ratio 1:50. The method, then: CAHS motif 1 124-142, a stabilizer provided by the present invention, was mixed with LDH (lactate dehydrogenase), a target protein candidate for activity protection experiments, at a mass ratio of 1:50. The LDH protein activity was tested under various temperature and time conditions to determine the degree of protein activity protection.
Specifically, LDH protein activity was tested at temperatures of −20° C., 20° C., and 37° C., and at time intervals of 0, 1, 2, and 4 weeks.

Data set [4] can be described thus: Solubility comparison after dialysis. Conditions: 100 μM, dialysed at 4° C. for 18 hours in 20 mM potassium phosphate, 150 mM NaCl, pH 7.0. The format is physicochemical. Here is the method: First, CAHS motif 1 124-142 was obtained via peptide synthesis. CAHS motif 1 124-142 and the entire CAHS protein 1-229 were each dialysed at 4° C. for 18 hours in a buffer containing 20 mM potassium phosphate, 150 mM NaCl, pH 7.0, at a concentration of 100 μM, to compare their solubility.

Consider “Bovine Serum Albumin [BSA, reference compound]”, for which, in data set [1], the “LDH activity protection rate” value is 50-60%. In data set [2] (dehydration-rehydration), the LDH aggregation result is recorded as “barely prevented aggregation”.
Consider “CAHS motif 1 124-142: 19-mer peptide, positions 124 to 142 of the CAHS protein, YRKQQEVEADKIRKELEKQ, obtained via peptide synthesis”, for which the “LDH activity preservation on storage” value in data set [3] (20° C., 1 to 4 weeks) was “well preserved”; in data set [3] (37° C., 1 to 4 weeks), “well preserved”; in data set [3] (all conditions: −20° C., 20° C., 37° C., 0, 1, 2, 4 weeks), “effectively preserve protein activity under all temperature and time conditions”; in data set [3] (−20° C., 1 to 4 weeks), “well preserved”. Further, the “LDH activity protection compared between excipients” value in data set [1] is “best protected the activity of the protein”. Moreover, the “LDH activity protection rate” value in data set [1] was 70-100%. The figures for the LDH aggregation result in data set [2] (dehydration-rehydration) and in data set [2] (freeze-thaw) were “reduced aggregation by more than half” and “effectively inhibits the aggregation of LDH”, respectively. Also, the solubility result in data set [4] was “excellent solubility in water”.
